{"source": "paper PMC6213900", "about": "“Design, Synthesis, and Cytotoxic Analysis of Novel Hederagenin–Pyrazine Derivatives Based on Partial Least Squares Discriminant Analysis” (International Journal of Molecular Sciences, 2018)", "key": {"[1]": {"tested_on": "H9c2 (murine heart myoblast)", "assay": "MTT toxicity evaluation, H9c2", "type": "cell-based", "details": "H9c2, 72 h treatment, non-tumor cells, read-out: Half Maximal Inhibitory Concentration (IC50) H9c2", "method_in_brief": "(§1)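 Cells seeded at 3 × 10^3/well in DMEM/10% FBS, then treated 72 h with 3.125–50 μM compound in DMSO. MTT (5 mg/mL) added for 4 h, formazan dissolved in DMSO, absorbance read at 490 nm; inhibition relative to untreated control, IC50 as 50% growth inhibition, triplicate runs.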"}, "A549 cells [2]": {"tested_on": "A549 cells", "assay": "Cell-cycle analysis by PI staining, flow cytometry", "type": "cell-based, human", "details": "72 h", "procedure": "The remarkable activity of compound 9 against the A549 cell line prompted us to investigate its effect on the cell cycle of A549 by flow cytometry.\nAccording to instructions, A549 cells were stained with the Cell Cycle and Apoptosis Analysis Kit (Beyotime Biotechnology, Shanghai, China). A549 cells in the logarithmic growth phase were seeded in six-well plates (4.8 × 10^4 cells/well). After incubation for 24 h at 37 °C with 5% CO2, various concentrations (0, 2, 5, or 10 μM) of compound 9 were added to the cultures, and the plate was incubated for a further 72 h. A549 cells were collected, washed twice with cold PBS, and centrifuged at 2400 rpm for 10 min. The resulting pellet was mixed with 1 mL of 70% ethanol, and retained for 12 h at 4 °C, before being centrifuged at 2400 rpm for 10 min. The supernatant was discarded, and the resulting pellet was mixed with 1mL of cold PBS and centrifuged at 2400 rpm for 10 min. Then, 0.5 mL of PI staining solution was added and mixed gently. After incubation at 37 °C for 30 min, the cells were immediately analyzed with a flow cytometer at 488 nm."}, "[3]": {"tested_on": "HepG2 (human hepatocellular carcinoma)", "assay": "MTT cytotoxicity assay, HepG2", "type": "cell-based", "details": "Homo sapiens, HepG2; MTT, 72 h treatment; read-out: Half Maximal Inhibitory Concentration (IC50) HepG2", "method_in_brief": "as §1"}, "[4]": {"tested_on": "MDCK (Madin–Darby canine kidney) cells", "assay": "MTT toxicity evaluation, MDCK", "type": "cell-based", "details": "Canis lupus familiaris, MDCK, 72 h treatment, non-tumor cells, read-out: Half Maximal Inhibitory Concentration (IC50) MDCK", "method_in_brief": "as §1"}, "[5]": {"tested_on": "A549 (human non-small-cell lung cancer)", "assay": "MTT cytotoxicity assay, A549", "type": "cell-based", "details": "Homo sapiens, A549, 72 h treatment, read-out: Half Maximal Inhibitory Concentration (IC50) A549", "method_in_brief": "as §1"}, "[6]": {"tested_on": "MCF-7 (human mammary cancer)", "assay": "MTT cytotoxicity assay, MCF-7", "type": "cell-based", "details": "Homo sapiens, MCF7, 72 h treatment, read-out: Half Maximal Inhibitory Concentration (IC50) MCF-7", "method_in_brief": "as §1"}, "A549 cells [7]": {"tested_on": "A549 cells", "assay": "DAPI staining, nuclear morphology", "type": "cell-based, human", "details": "6 μM, 72 h", "procedure": "As pictured in Figure 6, in the control group, the nucleus was intact and evenly colored. […] When the concentration of the drug increased, nuclear condensation, nuclear fragmentation, and the formation of apoptotic bodies appeared.\nA549 cells in the logarithmic growth phase were seeded in 12-well plates (1.2 × 10^4 cells/well). After incubation for 24 h at 37 °C with 5% CO2, various concentrations (0, 2, 4, or 6 μM) of compound 9 were added to the cultures, and the plate was incubated for further 72 h. Then, we discarded the cell culture fluid, washed twice with PBS, and fixed the cells with 4% paraformaldehyde for 10 min. After that, we added the appropriate amount of DAPI (1 mg/mL; Molecular Probes/Invitrogen Life Technologies, Carlsbad, CA, USA) to cover the bottom of the board, after staining for 5 min in the dark."}}}
{"compound": "Cc1cncc(C(=O)OCCOC(=O)[C@]23CCC(C)(C)CC2C2=CCC4[C@@]5(C)CC[C@H](O)[C@@](C)(CO)C5CC[C@@]4(C)[C@]2(C)CC3)n1", "note": "(stereo partly drawn) [Compound 9, 2-(((4aS,6aS,6bR,9R,10S,12aR)-10-Hydroxy-9-(hydroxymethyl)-2,2,6a,6b,9,12a-hexamethyl-1,2,3,4,4a,5,6,6a,6b,7,8,8a,9,10,11,12,12a,12b,13,14b-icosahydropicene-4a-carbonyl)oxy)ethyl-6-methylpyrazine-2-carboxylate]", "values": [{"measurement": "IC50", "setting": "[1]", "result": "16.69 ± 0.12", "unit": "µM"}, {"measurement": "cells in G1 phase", "setting": "A549 cells [2]; 2 μM", "result": 57.46, "unit": "%"}, {"measurement": "cells in G2 phase", "setting": "A549 cells [2]; 2 μM", "result": 8.37, "unit": "%"}, {"measurement": "cells in S phase", "setting": "A549 cells [2]; 2 μM", "result": 34.17, "unit": "%"}, {"measurement": "cells in G1 phase", "setting": "A549 cells [2]; 5 μM", "result": 53.44, "unit": "%"}, {"measurement": "cells in G2 phase", "setting": "A549 cells [2]; 5 μM", "result": 0.00, "unit": "%"}, {"measurement": "cells in S phase", "setting": "A549 cells [2]; 5 μM", "result": 46.56, "unit": "%"}, {"measurement": "cells in G1 phase", "setting": "A549 cells [2]; 10 μM", "result": 39.54, "unit": "%"}, {"measurement": "cells in G2 phase", "setting": "A549 cells [2]; 10 μM", "result": 0.00, "unit": "%"}, {"measurement": "cells in S phase", "setting": "A549 cells [2]; 10 μM", "result": 60.46, "unit": "%"}, {"measurement": "IC50", "setting": "[3]", "result": "8.71 ± 0.38", "unit": "µM"}, {"measurement": "IC50", "setting": "[4]", "result": "14.11 ± 0.04", "unit": "µM"}, {"measurement": "IC50", "setting": "[5]", "result": "3.45 ± 0.59", "unit": "µM"}, {"measurement": "IC50", "setting": "[6]", "result": "8.73 ± 1.49", "unit": "µM"}, {"measurement": "nuclear morphology, DAPI staining", "setting": "A549 cells [7]", "result": "the number of cells decreased drastically, the shape of the cells became irregular, and nuclear fragmentation occurred"}]}
